Several values for one entry are separate records, joined by “and”; a condition that tells them apart may be missing. Identical values can stand only once. Square brackets hold non-standard residues; d marks the D form. Peptide text beside a SMILES is read from it. * marks the point of attachment. NOTA = O=C(O)CN1CCN(CC(=O)O)CCN(CC(=O)*)CC1; Oic = O=C(O)[C@@H]1C[C@@H]2CCCC[C@@H]2N1; d2Nal = N[C@H](Cc1ccc2ccccc2c1)C(=O)O; αMeF = C[C@](N)(Cc1ccccc1)C(=O)O; Orn = NCCC[C@H](N)C(=O)O; βAla = NCCC(=O)O
Key:
hB1R [1] = target: T1, hB1R (Homo sapiens, UniProt P46663); experiment: Radioligand competition binding on HEK293 cells stably expressing hB1R; set-up: expressed in transfected cells; host or cells: QBI-HEK293A (lentiviral transduction, puromycin selection); details: hB1R-stably expressing HEK293 cells, means of two independent experiments
T1 sequence (P46663 1-353): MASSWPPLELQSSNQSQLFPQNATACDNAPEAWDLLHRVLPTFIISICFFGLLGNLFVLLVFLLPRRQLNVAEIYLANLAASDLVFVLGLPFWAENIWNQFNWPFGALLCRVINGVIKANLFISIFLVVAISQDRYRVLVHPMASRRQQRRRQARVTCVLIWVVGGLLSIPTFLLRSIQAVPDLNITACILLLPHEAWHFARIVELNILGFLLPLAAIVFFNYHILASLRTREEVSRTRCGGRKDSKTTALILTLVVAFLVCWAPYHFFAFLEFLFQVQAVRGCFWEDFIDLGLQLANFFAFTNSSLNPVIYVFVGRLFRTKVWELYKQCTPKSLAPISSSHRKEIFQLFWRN

hB1R [2] = target: T1, hB1R; experiment: NFAT-eGFP reporter assay in CHO-hB1R-NFAT-eGFP cells; format: cell-based; set-up: expressed in transfected cells; host or cells: CHO (hB1R-expressing line, then transduced with NFAT-eGFP reporter); details: means of two independent experiments; for IC50: hB1R-stably expressing CHO-NFAT cells, antagonist potency, read-out: CHO-NFAT IC50 (Table S1); for EC50: hB1R-stably expressing CHO-NFAT-eGFP cells, agonist potency, 16 h stimulation, read-out: CHO-NFAT EC50 (Table S2)
Description: The pLenti-6V5-NFAT-eGFP vector was generated from the pSIRV-NFAT-eGFP vector (a gift from Peter Steinberger, Addgene plasmid #118031). Briefly, NFAT-eGFP gene was PCR amplified using the following primers: 5′-[…]-3′ and 5′-[…]-3′). The amplified gene was then ligated into the ClaI and AgeI restriction sites of the pLenti-6V5 vector. Lentiviruses were produced using the pLenti-6V5-NFAT-eGFP vector in HEK293T cells and used to transduce a hB1R-expressing CHO cell line, followed by selection with 10 µg/mL blasticidin. […] Clones were grown in 4000 nanowells/well in 24-well plates and re-plated into 96-well plates after initial expansion via the ALS CellCelector™ (Sartorius Corporation, Bohemia, NY, USA). After clonal expansion, individual cell lines were evaluated based on their ratio of stimulated fluorescence to basal expression to determine maximum sensitivity.
Fluorescence assays performed on CHO-hB1R-NFAT-eGFP cells. Target cells were plated at 10,000 cells/well in a 96-well microplate (opaque black wells with clear flat bottom, Thermo Scientific, Rockford, IL, USA) using RPMI 1640 medium with 10% fetal bovine serum (FBS). After 24 h, the medium was replaced by RPMI without FBS and phenol red. […] Fluorescence was measured using a TECAN M1000 (Tecan Group Ltd., Männedorf, Switzerland) multimode microplate reader with excitation at 488 nm and emission at 507 nm. Each data point represents a ratio of two values, divided by the average fluorescence of six control wells. […] Antagonist affinity (Kb) was estimated from functional inhibition curves using the Gaddum (Schild) equation assuming competitive antagonism at human B1R: Kb = [B]/(dose-ratio–1), where [B] is the antagonist concentration, and the dose ratio is EC50 + Compound/EC50.

[3] = mouse, in vivo, iv
Experimental: To perform ex vivo biodistribution studies, radiolabeled peptides (5–10 MBq; 100 μL) were administered to isoflurane-anaesthetized normal male Balb/c mice through caudal vein injection. Organs were collected 1 h and 4 h post-injections from CO2 inhalation-euthanized animals and were washed, weighted, and radioactivity measured in a gamma counter (Cobra II auto-gamma counter, Packard). The percentage of injected dose per gram of tissue (%ID/g) was then calculated, accounting for decay correction, using external ^64Cu standards. Biodistribution of the radiolabeled peptides was also performed in PCa tumor-bearing nude mice using micro-PET imaging performed on a 7.5 cm axial and 10 cm transaxial field of view LabPET8 small-animal scanner (Gamma Medica-IDEAS Inc., Northridge, CA, USA) in combination with X-ray computer tomography (CT) (MILabs U-CT system, Utrecht, The Netherlands). For this, radiolabeled peptides (6–9 MBq in 200 μL) were delivered by tail-vein injection to isoflurane-anaesthetized mice. PET scans composed of 30 min static acquisition were acquired at 1 h and 20 h after injection. […] To quantify the tumor uptake of the radiotracer, a volume of interest (VOI) was drawn around the center of the tumor. The uptake was determined as the means of the VOI voxels having intensity in the upper quartile.

PC3 xenografts = experiment: Peptide receptor radionuclide therapy (PRRT) in PC3 xenograft-bearing mice; format: in vivo, mouse; details: nude mice with s.c. PC3 xenografts, single IV dose 50 µg/kg; 65 MBq
Experimental: Male Nu/Nu nude mice (Crl:NU-Foxn1nu: 4–6 weeks old, Charles River Laboratories, Inc., Wilmington, MA, USA) were subcutaneously (s.c.) inoculated into one or both lower flanks with PCa cells. LNCap cells (10 x 10^6) and PC3 cells (2.5 × 10^6) were suspended in 0.2 mL of a 1:1 (v/v) mixture of antibiotic-free DMEM medium and Matrigel (#356234, Sigma-Aldrich) for injection. Within 10–21 days post-inoculation, solid palpable prostate tumors had developed, and the animals were used for biodistribution, PET imaging, and radiotherapy studies. […]
Therapeutic efficacies of agents were investigated in PC3 xenograft-bearing mice. […] Tumor growth was monitored with a digital vernier caliper using the following formula: length × width^2. The weight of the mice was monitored throughout the study. […] Tumor growth was normalized by calculating the ratio of the tumor volume at each time point to the initial tumor volume measured prior to treatment. […]. […]
Retrieved subcutaneous tumors (5 μm thick sections) were evaluated by H&E and semiquantitative IHC staining of B1R, Ki67 (proliferation), cleaved caspase 3 (apoptosis), CD34 (angiogenesis), and LYVE-1 (lymphangiogenesis). […] Positive Ki67 staining was determined by the nucleus count (Ki-67+ cells/total cells) in sampled fields. […]

[4] = binding affinity, read-out: HEK293 IC50 (Table S1)
[5] = binding affinity of agonists, read-out: HEK293 IC50 (Table S2)

| Structure (SMILES) | IC50 (hB1R [1]; [4]) | IC50 (hB1R [2]) | IC50 (hB1R [1]; [5]) | EC50 (hB1R [2]) | also measured |
| --- | --- | --- | --- | --- | --- |
| N=C(N)NCCC[C@H](NC(=O)[C@H](CCCCN)NC(=O)CCNC(=O)CN1CCN(CC(=O)O)CCN(CC(=O)O)CC1)C(=O)N1CCC[C@H]1C(=O)N1CCC[C@H]1C(=O)NCC(=O)N[C@@H](Cc1ccccc1)C(=O)N[C@@H](CO)C(=O)N1CCC[C@H]1C(=O)N[C@H](Cc1ccccc1)C(=O)O [MAB2047] | – | – | 2.3 nM | 2.2 nM | – |
| CC[C@H](C)[C@H](NC(=O)[C@@H](Cc1ccc2ccccc2c1)NC(=O)[C@H](CO)NC(=O)[C@](C)(Cc1ccccc1)NC(=O)CNC(=O)[C@@H]1CCCN1C(=O)C1CC2CCCCC2N1C(=O)[C@H](CCCNC(=N)N)NC(=O)[C@H](CCCN)NC(=O)CN1CCN(CC(=O)O)CCN(CC(=O)O)CC1)C(=O)O (stereo partly shown) [MAB7020] | 5 nM | 0.4 nM | – | – | – |
| CC[C@H](C)[C@H](NC(=O)[C@@H](Cc1ccc2ccccc2c1)NC(=O)[C@H](CO)NC(=O)[C@](C)(Cc1ccccc1)NC(=O)CNC(=O)[C@@H]1CCCN1C(=O)[C@@H]1C[C@@H]2CCCC[C@@H]2N1C(=O)[C@H](CCCNC(=N)N)NC(=O)[C@H](CCCN)NC(=O)CCNC(=O)CN1CCN(CC(=O)O)CCN(CC(=O)O)CC1)C(=O)O [^64Cu/NOTA-βAla-R954, metal not drawn] ({NOTA-βAla}-[Orn]R[Oic]PG[αMeF]S[d2Nal]I-OH) | – | – | – | – | clearance from the bloodstream [3]: rapid clearance; observable toxicity (body weight) (PC3 xenografts): did not induce any observable toxicity |

Further lines, with some results ahead:

| IC50 (hB1R [1]; [4]) | IC50 (hB1R [2]) | IC50 (hB1R [1]; [5]) | EC50 (hB1R [2]) | Structure (SMILES) | also measured |
| --- | --- | --- | --- | --- | --- |
| 13 nM | 9.8 nM and 10 nM | – | – | CC[C@H](C)[C@H](NC(=O)[C@@H](Cc1ccc2ccccc2c1)NC(=O)[C@H](CO)NC(=O)[C@](C)(Cc1ccccc1)NC(=O)CNC(=O)[C@@H]1CCCN1C(=O)[C@@H]1C[C@@H]2CCCC[C@@H]2N1C(=O)[C@H](CCCNC(=N)N)NC(=O)[C@H](CCCN)NC(=O)CN1CCN(CC(=O)O)CCN(CC(=O)O)CC1)C(=O)O (natCu complex, metal not drawn) [MAB7090] | – |
| – | – | 40 nM | 41 nM | CNCC(=O)N[C@@H](CCCCNC(=O)CN1CCN(CC(=O)O)CCN(CC(=O)O)CC1)C(=O)N[C@@H](CCCNC(=N)N)C(=O)N1CCC[C@H]1C(=O)N1CCC[C@H]1C(=O)NCC(=O)N[C@@H](Cc1ccccc1)C(=O)N[C@@H](CO)C(=O)N1CCC[C@H]1C(=O)N[C@H](Cc1ccccc1)C(=O)O [MAB8066] | – |

Source: PMC12473165, “Theranostic Potential of a New ^64Cu-Labeled NOTA-R954 Peptide Conjugate for Kinin B1R Expressing Prostate Cancer” (Pharmaceutics, 2025)
